Laboratory results: article PMC5308256 (2017)

How the values were obtained:
[1] = tested on: label-free A12-MB-A12 (DNA, hairpin) AAAAAAAAAAAACATCATAGTCGAGTGTCCAGGGAAAAAAAAAAAA; experiment: SYBR Green I fluorescence enhancement on folding; conditions: 10 mM HEPES pH 7.3; 0.5 μM DNA; 160 nM SYBR Green I
[2] = tested on: FAM-A40-DABCYL (A40) (DNA, hairpin) AAAAAAAAAAAAAAAAAAAAAAAAAAAAAAAAAAAAAAAA; experiment: FAM/DABCYL fluorescence quenching titration; conditions: 10 mM HEPES pH 7.3; 10 nM DNA; saturation at 0.6 μM coralyne
[3] = tested on: A12-MB-A12 (FAM/DABCYL-labeled) (DNA, hairpin) AAAAAAAAAAAACATCATAGTCGAGTGTCCAGGGAAAAAAAAAAAA; experiment: FAM/DABCYL fluorescence quenching titration; conditions: 10 mM HEPES pH 7.3; 10 nM DNA; saturation at 0.6 μM coralyne

- binding [1]: yes
- binding [2]: yes
- Kd [3]: 0.5 µM
SMILES: COc1cc2cc3c4cc(OC)c(OC)cc4cc[n+]3c(C)c2cc1OC
